Test results taken from patent publication US11254717B2, “Antimicrobial peptide Sparamosin from Scylla paramamosain and application thereof” (priority 2018, dated 2022).
Converted amounts (≈) assume the structure as drawn. Ends that are not written are not given here. Peptide text beside a SMILES is read from it.

Tests used:
[1] = system: various Gram-positive bacteria and Gram-negative bacteria
[2] = system: normal mouse liver cell line (AML12 cell line); assay: Cytotoxicity, MTS-PMS assay; type: cell-based; conditions: normal cultured mouse hepatocytes
Procedure: (§1) The cytotoxicity effect of synthetic Sparamosin26-54 was evaluated using normal mouse liver cell line (AML12 cell line) and normal human liver cell line (L02 cell line).
(§2) (1) AML12 or L02 cells were harvested, and the cell concentration was adjusted to 10^5 cells/mL.
(§3) (2) 100 μL of AML12 or L02 cells were seeded in 96-wells and incubated at 37° C.
(§4) (3) Cells were treated with different concentrations of Sparamosin26-54 (0, 0.1, 1, 10, 100 μg/mL) for 24 h at 37° C.
(§5) (4) Cells were treated with 20 μL of MTS-PMS reagent for another 2 hours, and then the absorbance value of each well was measured at 492 nm (see FIG. 4).

[3] = system: normal human liver cell line (L02 cell line); assay: Cytotoxicity, MTS-PMS assay; type: cell-based; conditions: normal cultured human hepatocytes
Procedure: as §1, §2, §3, §4, §5

[4] = system: Corynebacterium glutamicum

Compound | MBC: minimum bactericidal concentration (Staphylococcus aureus) [µM] | MIC: minimum inhibitory concentration (Staphylococcus aureus) [µM] | MBC: minimum bactericidal concentration (Escherichia coli) [µM] | MIC: minimum inhibitory concentration (Escherichia coli) [µM] | MBC: minimum bactericidal concentration (Pseudomonas fluorescens) [µM] | MIC: minimum inhibitory concentration (Pseudomonas fluorescens) [µM] | MBC: minimum bactericidal concentration (Bacillus cereus) [µM] | MIC: minimum inhibitory concentration (Bacillus cereus) [µM] | MBC: minimum bactericidal concentration (Pichia pastoris (GS115)) [µM] | MIC: minimum inhibitory concentration (Pichia pastoris (GS115)) [µM] | MBC: minimum bactericidal concentration (Cryptococcus neoformans) [µM] | MIC: minimum inhibitory concentration (Cryptococcus neoformans) [µM] | other results
CSCC[C@H](NC(=O)[C@H](CS)NC(=O)[C@@H](NC(=O)[C@H](Cc1ccccc1)NC(=O)[C@H](CC(N)=O)NC(=O)[C@H](CC(C)C)NC(=O)[C@H](CCCNC(=N)N)NC(=O)[C@H](CS)NC(=O)[C@H](CCCNC(=N)N)NC(=O)CNC(=O)[C@H](CC(C)C)NC(=O)[C@H](Cc1ccccc1)NC(=O)[C@H](CC(=O)O)NC(=O)[C@H](CCCNC(=N)N)NC(=O)[C@H](CCCCN)NC(=O)[C@H](Cc1ccc(O)cc1)NC(=O)[C@H](CS)NC(=O)[C@H](CCCCN)NC(=O)[C@H](CCCCN)NC(=O)[C@H](CCCNC(=N)N)NC(=O)[C@H](CS)NC(=O)[C@@H]1CCCN1C(=O)[C@H](CC(N)=O)NC(=O)[C@@H]1CCCN1C(=O)CNC(=O)[C@H](CC(C)C)NC(=O)CN)[C@@H](C)O)C(=O)N[C@@H](Cc1ccccc1)C(=O)NCC(=O)O [Sparamosin26-54] (H-GLGPNPCRKKCYKRDFLGRCRLNFTCMFG-OH; N-terminus and C-terminus assumed) | 12 (≈ 40.6 µg/mL) | 3 to 6 | 12 (≈ 40.6 µg/mL) | 6 to 12 | 6 (≈ 20.3 µg/mL) | 3 to 6 | 24 (≈ 81.2 µg/mL) | 6 to 12 | 3 (≈ 10.1 µg/mL) | 1.5 to 3 | 12 (≈ 40.6 µg/mL) | 1.5 to 3 | MBC: minimum bactericidal concentration (Fusarium oxysporum): 12 µM (≈ 40.6 µg/mL); MBC: minimum bactericidal concentration (Aspergillus niger): 24 µM (≈ 81.2 µg/mL); MIC: minimum inhibitory concentration (Aspergillus niger): 6 to 12 µM; MBC: minimum bactericidal concentration (Aspergillus ochraceus): 48 µM (≈ 162 µg/mL); MIC: minimum inhibitory concentration (Aspergillus ochraceus): 3 to 6 µM; MBC: minimum bactericidal concentration (Aspergillus flavus): >48 µM; MIC: minimum inhibitory concentration (Aspergillus flavus): >48 µM; MBC: minimum bactericidal concentration (Pseudomonas aeruginosa): 12 µM (≈ 40.6 µg/mL); MIC: minimum inhibitory concentration (Pseudomonas aeruginosa): 6 to 12 µM; MBC: minimum bactericidal concentration (Aspergillus fumigatus): 24 µM (≈ 81.2 µg/mL); MIC: minimum inhibitory concentration (Aspergillus fumigatus): 12 to 24 µM; minimum inhibitory concentration (MIC) value [1]: 3 to 12 µM; MBC: minimum bactericidal concentration (Candida albicans): >48 µM; MIC: minimum inhibitory concentration (Candida albicans): >48 µM; cytotoxic effect [2]: no cytotoxic effect; cytotoxic effect [3]: no cytotoxic effect; MBC: minimum bactericidal concentration (Neurospora crasa): 48 µM (≈ 162 µg/mL); MBC: minimum bactericidal concentration [4]: 6 µM (≈ 20.3 µg/mL); MIC: minimum inhibitory concentration [4]: 1.5 to 3 µM; MIC value (various molds): 6 to 24 µM
APVPDPDSEQSNISEVLKVQHSIFSGLGPNPCRKKCYKRDFLGRCRLNFTCMFG (cysteines drawn unpaired) [Sparamosin] | 48 | 12 to 24 | 24 | 12 to 24 | 24 | 12 to 24 | >48 | 24 to 48 | 24 | 6 to 12 | >48 | >48 | 
